Converted amounts (≈) assume the structure as drawn.
Columns and labels:
[1] = In vitro metabolism in human liver microsomes; settings: for half-life: human, microsomes
Method: (§1) The target product profile seeks to deliver JNK inhibitor as a once daily oral administration. To prioritize compounds for further development, in vitro metabolism of several CDD JNK inhibitors were determined to approximate the plasma half-life and the rate of metabolism of the compounds in vivo.

[2] = In vitro metabolism in mouse liver microsomes; settings: for half-life: mouse, microsomes
Method: as §1

[3] = target: T1, JNK1 (Homo sapiens, UniProt P45983); test: JNK1 kinase (intrinsic ATPase, Kinase-Glo) assay; format: biochemical; settings: for Ki: Table 3b, read-out: Ki(app) JNK1
Method: JNK1, JNK2, and JNK3 hydrolyze ATP to ADP without any peptide substrates. This allows a very robust and fast endpoint assay where the remaining concentration of ATP is measured (BMG ClarioStar Plus plate reader) using the Kinase-Glo Assay kit from Promega (V6711). A luminescence signal is measured, which is produced by the catalytic conversion of beetle luciferin to oxyluciferin by luciferase. Potential inhibition of luciferase (i.e., false negatives) is easily detected, because assays without kinase are always included, and less ATP than is present in this control reaction could also indicate an inhibition of luciferase, which can be excluded by a counter screen with only luciferase.
To mitigate violation of the linear initial velocity principle, which is a problem in end-point assays when doing dose-responses, the enzyme concentration was carefully optimized, in a total assay volume of 25 μL. […] The kinase reaction was done for 30 or 60 min at 30° C., and detection of leftover ATP was measured according to Promega's protocol. […] Fractional activities were obtained from normalized data. Non-linear regression (GraphPad Prism7) and a modified Morrison equation for tight binding was used to determine apparent Ki values for inhibitors, assuming no particular mode of inhibition. An orthogonal binding assay (LanthaScreen) was outsourced to ThermoFisher Scientific's SelectScreen Services to determine IC50 values.

[4] = target: T1, JNK1; test: Promega NanoBRET intracellular target engagement (tracer K10 displacement), JNK1; format: cell-based
[5] = target: T2, JNK2 (Homo sapiens, UniProt P45984); test: Promega NanoBRET intracellular target engagement (tracer K10 displacement), JNK2; format: cell-based
[6] = target: T2, JNK2; test: JNK2 kinase (intrinsic ATPase, Kinase-Glo) assay; format: biochemical; settings: for Kd: Table 3a, read-out: Kd JNK2
[7] = Solubility
[8] = target: JNK3 (Homo sapiens, UniProt P53779); test: JNK3 kinase (intrinsic ATPase, Kinase-Glo) assay; format: biochemical; settings: for Kd: Table 3a, read-out: Kd JNK3
Chain of JNK3 (P53779 whole entry): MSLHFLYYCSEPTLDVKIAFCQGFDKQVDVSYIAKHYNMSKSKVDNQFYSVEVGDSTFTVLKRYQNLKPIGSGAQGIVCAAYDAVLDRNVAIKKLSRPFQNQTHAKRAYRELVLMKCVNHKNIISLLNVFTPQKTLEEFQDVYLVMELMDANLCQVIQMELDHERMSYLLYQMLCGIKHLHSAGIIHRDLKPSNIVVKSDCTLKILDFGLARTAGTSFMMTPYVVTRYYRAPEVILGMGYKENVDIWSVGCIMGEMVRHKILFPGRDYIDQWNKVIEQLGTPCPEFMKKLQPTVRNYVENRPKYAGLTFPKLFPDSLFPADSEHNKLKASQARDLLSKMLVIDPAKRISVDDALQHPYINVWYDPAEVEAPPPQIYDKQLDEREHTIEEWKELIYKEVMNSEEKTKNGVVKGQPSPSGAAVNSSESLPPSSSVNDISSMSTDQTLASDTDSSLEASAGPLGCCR

T2 sequence (P45984 whole entry): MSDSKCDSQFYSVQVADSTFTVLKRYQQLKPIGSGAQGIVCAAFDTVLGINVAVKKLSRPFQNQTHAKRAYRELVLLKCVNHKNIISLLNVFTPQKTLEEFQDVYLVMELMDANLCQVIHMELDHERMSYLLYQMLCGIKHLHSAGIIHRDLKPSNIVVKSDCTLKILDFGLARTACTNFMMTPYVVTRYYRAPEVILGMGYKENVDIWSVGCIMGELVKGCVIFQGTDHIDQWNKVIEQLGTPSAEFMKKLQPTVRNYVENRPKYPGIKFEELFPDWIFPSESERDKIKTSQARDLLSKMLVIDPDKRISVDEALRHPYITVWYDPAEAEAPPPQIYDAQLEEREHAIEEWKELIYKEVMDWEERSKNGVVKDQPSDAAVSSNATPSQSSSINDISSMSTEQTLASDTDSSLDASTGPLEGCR
T1 sequence (P45983 whole entry): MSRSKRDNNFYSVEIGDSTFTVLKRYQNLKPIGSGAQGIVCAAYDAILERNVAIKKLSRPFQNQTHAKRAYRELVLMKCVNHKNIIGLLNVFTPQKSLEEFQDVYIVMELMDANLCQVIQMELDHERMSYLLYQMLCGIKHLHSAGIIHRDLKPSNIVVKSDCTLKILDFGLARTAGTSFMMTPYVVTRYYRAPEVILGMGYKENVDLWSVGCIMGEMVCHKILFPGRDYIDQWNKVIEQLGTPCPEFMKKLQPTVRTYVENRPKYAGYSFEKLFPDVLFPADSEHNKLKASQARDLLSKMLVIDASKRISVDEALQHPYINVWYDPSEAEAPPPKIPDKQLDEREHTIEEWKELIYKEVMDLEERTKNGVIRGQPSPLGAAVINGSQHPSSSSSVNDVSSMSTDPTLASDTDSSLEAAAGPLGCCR

Cc1nnc2n1-c1ccc(Cl)cc1C(c1ccccc1)=NC2 [Alprazolam, reference compound]
Predicted half-life, HLM t1/2 [1]: 12.63 h
Predicted half-life, MLM t1/2 [2]: 3.975 h

CNC(=O)CN1[C@H](CC(=O)NCCCN(C)c2ccc(F)cc2)CNC[C@H]1C [CDD-2272, N-(3-((4-fluorophenyl)(methyl)amino)propyl)-2-((2R,6R)-6-methyl-1-(2-(methylamino)-2-oxoethyl)piperazin-2-yl)acetamide]
Ki [3]: 860 nM
IC50 [4]: 60000 nM
IC50 [5]: 58000 nM

CNC(=O)c1ccc(NC(=O)c2ccn3ncc(-c4cnc5[nH]ccc5c4)c3c2)cc1 [CDD-2461, N-(4-(methylcarbamoyl)phenyl)-3-(1H-pyrrolo[2,3-b]pyridin-5-yl)pyrazolo[1,5-a]pyridine-5-carboxamide]
half-life [1]: 1.19 h
Kd [3]: 0.2 ± 0.18 nM
IC50 [4]: 49500 nM
Kd [6]: 0.32 ± 0.12 nM
IC50 [5]: 5300 nM
solubility [7]: 1.8 µM (≈ 0.739 µg/mL)
Kd [8]: 0.33 ± 0.03 nM
half-life [2]: 0.513 h

O=C(Nc1ccc(C(F)(F)F)cc1)c1ccn2ncc(-c3cnc4[nH]ccc4c3)c2c1 [CDD-2483, 3-(1H-pyrrolo[2,3-b]pyridin-5-yl)-N-(4-(trifluoromethyl)phenyl)pyrazolo[1,5-a]pyridine-5-carboxamide]
Ki [6]: 339 nM
solubility [7]: 0.6 µM (≈ 0.253 µg/mL)
Ki [8]: 167 nM

O=C(Nc1ccccc1)c1ccn2ncc(-c3cnc4[nH]ccc4c3)c2c1 [CDD-2485, N-phenyl-3-(1H-pyrrolo[2,3-b]pyridin-5-yl)pyrazolo[1,5-a]pyridine-5-carboxamide]
Kd [3]: 0.12 ± 0.09 nM
Kd [6]: 0.95 ± 0.16 nM
Kd [8]: 0.73 ± 0.02 nM

COc1ccc(NC(=O)c2cc3c(-c4cnc5[nH]ccc5c4)cccc3s2)cc1 [CDD-2629, N-(4-methoxyphenyl)-4-(1H-pyrrolo[2,3-b]pyridin-5-yl)benzo[b]thiophene-2-carboxamide]
Kd [3]: 7.8 ± 1.4 nM
Kd [6]: 15.4 ± 1.4 nM
Kd [8]: 9.9 ± 1.3 nM

O=C(Nc1ccccc1)c1cc2c(-c3cnc4[nH]ccc4c3)cccc2s1 [CDD-2631, N-phenyl-4-(1H-pyrrolo[2,3-b]pyridin-5-yl)benzo[b]thiophene-2-carboxamide]
Kd [3]: 5.9 ± 1.1 nM
Kd [6]: 27.8 ± 3.6 nM
Kd [8]: 12.7 ± 1.2 nM

CN(C)C(=O)c1cccc(NC(=O)c2cc3c(-c4cnc5[nH]ccc5c4)cccc3s2)c1 [CDD-2632, N-(3-(dimethylcarbamoyl)phenyl)-4-(1H-pyrrolo[2,3-b]pyridin-5-yl)benzo[b]thiophene-2-carboxamide]
Kd [3]: 4.91 ± 0.9 nM
Kd [6]: 3.5 ± 1.4 nM
solubility [7]: 0.6 µM (≈ 0.264 µg/mL)
Kd [8]: 5.82 ± 0.92 nM

CN(C)C(=O)c1cc(NC(=O)c2cc3c(-c4cnc5[nH]ccc5c4)cccc3s2)ccc1F [CDD-2730, N-(3-(dimethylcarbamoyl)-4-fluorophenyl)-4-(1H-pyrrolo[2,3-b]pyridin-5-yl)benzo[b]thiophene-2-carboxamide]
Kd [3]: 0.58 ± 0.08 nM
Kd [6]: 5.33 ± 0.52 nM
solubility [7]: 0.3 µM (≈ 0.138 µg/mL)
Kd [8]: 1.86 ± 0.18 nM

CN(C)C(=O)c1cc(NC(=O)c2cc3c(-c4cnc5[nH]ccc5c4)cccc3s2)ccc1C(F)(F)F [CDD-2732, N-(3-(dimethylcarbamoyl)-4-(trifluoromethyl)phenyl)-4-(1H-pyrrolo[2,3-b]pyridin-5-yl)benzo[b]thiophene-2-carboxamide]
Kd [3]: 14.3 ± 1.6 nM
Kd [6]: 67 ± 11 nM
Kd [8]: 24.3 ± 1.9 nM

CN(C)C(=O)c1cc(NC(=O)c2cc3c(-c4cnc5[nH]ccc5c4)cccc3s2)ccc1OC(F)(F)F [CDD-2857, N-(3-(dimethylcarbamoyl)-4-(trifluoromethoxy)phenyl)-4-(1H-pyrrolo[2,3-b]pyridin-5-yl)benzo[b]thiophene-2-carboxamide]
half-life [1]: 2.88 h
Kd [3]: 11.3 ± 3.4 nM
Kd [6]: 49.8 ± 9.7 nM
Kd [8]: 15.7 ± 1.2 nM
half-life [2]: 1.42 h

CN(C)C(=O)c1cc(NC(=O)c2ccc3ncc(-c4cnc5[nH]ccc5c4)n3c2)ccc1O [CDD-3016]
half-life [1]: 4.88 h
Kd [3]: 0.65 ± 0.15 nM
Kd [6]: 5.77 ± 0.8 nM
solubility [7]: 9.7 µM (≈ 4.27 µg/mL)
Kd [8]: 1.48 ± 0.14 nM
half-life [2]: 5.3 h

CN(C)CCNC(=O)c1cc2c(-c3cnc4[nH]ccc4c3)cccc2s1 [CDD-3085, N-(2-(dimethylamino)ethyl)-4-(1H-pyrrolo[2,3-b]pyridin-5-yl)benzo[b]thiophene-2-carboxamide]
half-life [1]: 7.5 h
Kd [3]: 13.1 ± 1.2 nM
Kd [6]: 42.8 ± 8.3 nM
solubility [7]: 170 µM (≈ 62 µg/mL)
Kd [8]: 30.3 ± 2.7 nM
half-life [2]: 1.17 h

CN(C)CCNC(=O)c1cc(NC(=O)c2cc3c(-c4cnc5[nH]ccc5c4)cccc3s2)ccc1O [CDD-3086, N-(3-((2-(dimethylamino)ethyl)carbamoyl)-4-hydroxyphenyl)-4-(1H-pyrrolo[2,3-b]pyridin-5-yl)benzo[b]thiophene-2-carboxamide]
half-life [1]: 1.68 h
Kd [3]: 0.67 ± 0.14 nM
Kd [6]: 5.98 ± 0.42 nM
solubility [7]: 2 µM (≈ 0.999 µg/mL)
Kd [8]: 5.21 ± 0.46 nM
half-life [2]: 1.5 h

CNC(=O)c1cc(NC(=O)c2cc3c(-c4cnc5[nH]ccc5c4)cccc3s2)ccc1O [CDD-3087, N-(4-hydroxy-3-(methylcarbamoyl)phenyl)-4-(1H-pyrrolo[2,3-b]pyridin-5-yl)benzo[b]thiophene-2-carboxamide]
half-life [1]: 1.97 h
Kd [3]: 1.96 ± 0.53 nM
Kd [6]: 11.4 ± 0.81 nM
solubility [7]: 0.4 µM (≈ 0.177 µg/mL)
Kd [8]: 4.54 ± 0.5 nM
half-life [2]: 1.28 h

CN(C)C(=O)c1cc(NC(=O)c2cc3c(-c4cnc5[nH]ccc5c4)cncc3s2)ccc1O [CDD-3111, N-(3-(dimethylcarbamoyl)-4-hydroxyphenyl)-4-(1H-pyrrolo[2,3-b]pyridin-5-yl)thieno[2,3-c]pyridine-2-carboxamide]
half-life [1]: 2.22 h
Kd [3]: 0.07 ± 0.05 nM
Kd [6]: 0.73 ± 0.1 nM
solubility [7]: 3.8 µM (≈ 1.74 µg/mL)
Kd [8]: 0.32 ± 0.04 nM
half-life [2]: 2.07 h

O=C(Nc1ccc(O)c(C(=O)NC2COC2)c1)c1cc2c(-c3cnc4[nH]ccc4c3)cccc2s1 [CDD-3112, N-(4-hydroxy-3-(oxetan-3-ylcarbamoyl)phenyl)-4-(1H-pyrrolo[2,3-b]pyridin-5-yl)benzo[b]thiophene-2-carboxamide]
half-life [1]: 1.65 h
Kd [3]: 2.84 ± 0.49 nM
Kd [6]: 13.5 ± 0.8 nM
solubility [7]: 1.6 µM (≈ 0.775 µg/mL)
Kd [8]: 6.4 ± 0.6 nM
half-life [2]: 2.83 h

O=C(Nc1ccc(O)c(C(=O)NCC2CC2)c1)c1cc2c(-c3cnc4[nH]ccc4c3)cccc2s1 [CDD-3113, N-(3-((cyclopropylmethyl)carbamoyl)-4-hydroxyphenyl)-4-(1H-pyrrolo[2,3-b]pyridin-5-yl)benzo[b]thiophene-2-carboxamide]
half-life [1]: 4.8 h
Kd [3]: 10.4 ± 1.4 nM
Kd [6]: 40.7 ± 5.5 nM
Kd [8]: 10.9 ± 0.7 nM
half-life [2]: 3.15 h

O=C(Nc1ccc2c(c1)C(=O)NC2)c1cc2c(-c3cnc4[nH]ccc4c3)cccc2s1 [CDD-3115, N-(3-oxoisoindolin-5-yl)-4-(1H-pyrrolo[2,3-b]pyridin-5-yl)benzo[b]thiophene-2-carboxamide]
half-life [1]: 14.8 h
Kd [3]: 1.5 ± 0.2 nM
Kd [6]: 6.3 ± 0.6 nM
solubility [7]: 1.4 µM (≈ 0.594 µg/mL)
Kd [8]: 4.6 ± 0.7 nM
half-life [2]: 1.43 h

O=C(c1cc2c(-c3cnc4[nH]ccc4c3)cccc2s1)N1CCN(c2ccccc2)C(=O)C1 [CDD-3116, 4-(4-(1H-pyrrolo[2,3-b]pyridin-5-yl)benzo[b]thiophene-2-carbonyl)-1-phenylpiperazin-2-one]
half-life [1]: 0.8 h
Kd [3]: 54.5 ± 5.4 nM
Kd [6]: 447 ± 65 nM
solubility [7]: 4.2 µM (≈ 1.9 µg/mL)
Kd [8]: 114 ± 7 nM
half-life [2]: 0.567 h

CCN(CC)Cc1cc(NC(=O)c2cc3c(-c4cnc5[nH]ccc5c4)cccc3s2)ccc1O [CDD-3117, N-(3-((diethylamino)methyl)-4-hydroxyphenyl)-4-(1H-pyrrolo[2,3-b]pyridin-5-yl)benzo[b]thiophene-2-carboxamide]
half-life [1]: 0.517 h
Kd [3]: 0.9 ± 0.2 nM
Kd [6]: 2.1 ± 0.3 nM
solubility [7]: 3.4 µM (≈ 1.6 µg/mL)
Kd [8]: 2.9 ± 0.4 nM
half-life [2]: 1.9 h

N#Cc1cc(NC(=O)c2cc3c(-c4cnc5[nH]ccc5c4)cccc3s2)ccc1O [CDD-3126, N-(3-cyano-4-hydroxyphenyl)-4-(1H-pyrrolo[2,3-b]pyridin-5-yl)benzo[b]thiophene-2-carboxamide]
half-life [1]: 5.4 h
Ki [3]: 30 nM
solubility [7]: > 200 µM
half-life [2]: 2.4 h

Cc1sc2c(c1C)C(c1ccc(Cl)cc1)=N[C@@H](CC(=O)OC(C)(C)C)c1nnc(C)n1-2 [JQ1, reference compound]
Predicted half-life, HLM t1/2 [1]: 0.275 h
Predicted half-life, MLM t1/2 [2]: 0.193 h
